Results as given in patent US12447146B2, “Topical composition comprising tacrolimus” (MC2 Therapeutics Limited, priority 2016, dated 2025).

Test: Solubility of tacrolimus in oil solvents measured by HPLC
Type: physicochemical
Description: In this Example, the solubility of tacrolimus in various oil solvents was measured by HPLC.
Approximately 40 mg of tacrolimus was weighed and a known quantity (1-2 g) of oil was added and stirred for 5 hours at room temperature. […] If the tacrolimus appeared to be fully dissolved in under 10 g of oil the sample was then placed at 4° C. overnight. If the tacrolimus precipitated out after cold storage further oil was added and the above steps were repeated until dissolved or the 10 g of oil had been added. All samples were then centrifuged to ensure any non-dissolved tacrolimus was removed and the supernatant analysed by HPLC as described in Example 1.

Solubility (% wt) (tacrolimus in Capric caprylic trigylcerides): 0.44 % wt
Solubility (% wt) (tacrolimus in Castor oil): 1.44 % wt
Solubility (% wt) (tacrolimus in Cyclomethicone): 0.004 % wt
Solubility (% wt) (tacrolimus in Dibutyl adipate, room temperature, then 4° C. overnight, *assay within 95% of theoretical maximum, likely solubility greater than stated): 3.24* % wt
Solubility (% wt) (tacrolimus in Diethyl sebacate, room temperature, then 4° C. overnight, *assay within 95% of theoretical maximum, likely solubility greater than stated): 3.26* % wt
Solubility (% wt) (tacrolimus in Diisopropyl adipate, room temperature, then 4° C. overnight, *assay within 95% of theoretical maximum, likely solubility greater than stated): 3.08* % wt
Solubility (% wt) (tacrolimus in Dimethicone): 0.004 % wt
Solubility (% wt) (tacrolimus in Heptylmethylnonane): 0.006 % wt
Solubility (% wt) (tacrolimus in Isopropyl isostearate): 0.19 % wt
Solubility (% wt) (tacrolimus in Isopropyl myristate): 0.25 % wt
Solubility (% wt) (tacrolimus in Isopropyl palmitate): 0.26 % wt
Solubility (% wt) (tacrolimus in Mineral oil): 0.003 % wt
SMILES: C=CC[C@@H]1/C=C(\C)C[C@H](C)C[C@H](OC)[C@H]2O[C@@](O)(C(=O)C(=O)N3CCCC[C@H]3C(=O)O[C@H](/C(C)=C/[C@@H]3CC[C@@H](O)[C@H](OC)C3)[C@H](C)[C@@H](O)CC1=O)[C@H](C)C[C@@H]2OC [tacrolimus]
